In patent publication US8124780B2, “Benzimidazole compound” (priority 2005, dated 2012):
Counter-ions that a name gives are not always drawn. Like-named read-outs stand apart in the source and are kept apart here.

System: gastric acid secretion
Experiment: animal or person
Type: in vivo, dog
Settings: iv; for inhibition in vivo at 0.8 mg/kg / inhibition in vivo at 1.6 mg/kg / inhibition in vivo at 0.4 mg/kg: Canis lupus familiaris
[1] = 24 h, read-out: Persistency of inhibitory effect against gastric acid secretion (%)
[2] = read-out: Inhibitory effect against gastric acid secretion (%)

Compound | inhibition in vivo at 0.8 mg/kg [1] [%] | inhibition in vivo at 1.6 mg/kg [1] [%] | inhibition in vivo at 0.8 mg/kg [2] [%] | inhibition in vivo at 1.6 mg/kg [2] [%] | also measured
Cc1c(OCC2COC3(CCOCC3)OC2)ccnc1C[S+]([O-])c1nc2ccccc2[nH]1 (centres unmarked) [Example 10, 2-(((3-methyl-4-(1,5,9-trioxaspiro[5.5]undec-3-ylmethoxy)pyridin-2-yl)methyl)sulfinyl)-1H-benzimidazole sodium salt] | 90 | 87 | 98 | 100 | 
Cc1c(OCC2COC(C)(C)O2)ccnc1C[S+]([O-])c1nc2cc(F)ccc2[nH]1 (centres unmarked) [Example 52, 2-(((4-((2,2-dimethyl-1,3-dioxolan-4-yl)methoxy)-3-methylpyridin-2-yl)methyl)sulfinyl)-5-fluoro-1H-benzimidazole sodium salt] |  | 87 |  | 100 | 
Cc1c(OCC2COCO2)ccnc1C[S+]([O-])c1nc2ccccc2[nH]1 (centres unmarked) [Example 87, 2-(((4-(1,3-dioxolan-4-ylmethoxy)-3-methylpyridin-2-yl)methyl)sulfinyl)-1H-benzimidazole sodium salt] | 92 |  | 100 |  | 
Cc1cnc(C[S+]([O-])c2nc3ccccc3[nH]2)c(C)c1OCC1COC(C)(C)OC1 (centres unmarked) [Example 11, 2-(((4-((2,2-dimethyl-1,3-dioxan-5-yl)methoxy)-3,5-dimethylpyridin-2-yl)methyl)sulfinyl)-1H-benzimidazole sodium salt] | 89 |  | 100 |  | inhibition in vivo at 0.4 mg/kg [1]: 65%; inhibition in vivo at 0.4 mg/kg [2]: 79%
Cc1c(OCC2OCC(F)(F)CO2)ccnc1C[S+]([O-])c1nc2ccccc2[nH]1 (centres unmarked) [Example 46, 2-(((4-((5,5-difluoro-1,3-dioxan-2-yl)methoxy)-3-methylpyridin-2-yl)methyl)sulfinyl)-1H-benzimidazole sodium salt] | 95 |  | 100 |  | 
CCC1(CCOc2ccnc(C[S+]([O-])c3nc4c(C)cccc4[nH]3)c2C)OCCO1 (centres unmarked) [Example 41, 2-(((4-(2-(2-ethyl-1,3-dioxolan-2-yl)ethoxy)-3-methylpyridin-2-yl)methyl)sulfinyl)-4-methyl-1H-benzimidazole sodium salt] |  | 85 |  | 100 | 
Cc1ccc2[nH]c([S+]([O-])Cc3nccc(OCC4COC(C)(C)OC4)c3C)nc2c1 (centres unmarked) [Example 55, 2-(((4-((2,2-dimethyl-1,3-dioxan-5-yl)methoxy)-3-methylpyridin-2-yl)methyl)sulfinyl)-5-methyl-1H-benzimidazole sodium salt] | 75 |  | 83 |  | 
Cc1c(OCCC2OCC(C)(C)CO2)ccnc1C[S+]([O-])c1nc2ccccc2[nH]1 (centres unmarked) [Example 86, 2-(((4-(2-(5,5-dimethyl-1,3-dioxan-2-yl)ethoxy)-3-methylpyridin-2-yl)methyl)sulfinyl)-1H-benzimidazole sodium salt] | 75 |  | 100 |  | 
Cc1c(OCC2COc3ccccc3O2)ccnc1C[S+]([O-])c1nc2ccccc2[nH]1 (centres unmarked) [Example 61, 2-(((4-(2,3-dihydro-1,4-benzodioxin-2-ylmethoxy)-3-methylpyridin-2-yl)methyl)sulfinyl)-1H-benzimidazole sodium salt] |  | 90 |  | 100 | 
CCC1(CC)OCC(COc2ccnc(C[S+]([O-])c3nc4ccccc4[nH]3)c2C)O1 (centres unmarked) [Example 65, 2-(((4-((2,2-diethyl-1,3-dioxolan-4-yl)methoxy)-3-methylpyridin-2-yl)methyl)sulfinyl)-1H-benzimidazole sodium salt] |  | 91 |  | 100 | 
COC1OCC(COc2ccnc(C[S+]([O-])c3nc4ccccc4[nH]3)c2C)CO1 (centres unmarked) [Example 6, 2-(((4-((2-methoxy-1,3-dioxan-5-yl)methoxy)-3-methylpyridin-2-yl)methyl)sulfinyl)-1H-benzimidazole sodium salt] | 89 |  | 100 |  | 
Cc1c(OCCC2(C)OCCO2)ccnc1C[S+]([O-])c1nc2ccccc2[nH]1 (centres unmarked) [Example 69, 2-(((3-methyl-4-(2-(2-methyl-1,3-dioxolan-2-yl)ethoxy)pyridin-2-yl)methyl)sulfinyl)-1H-benzimidazole sodium salt] |  | 78 |  | 100 | 
CCC1(CCOc2ccnc(C[S+]([O-])c3nc4ccccc4[nH]3)c2C)OCCO1 (centres unmarked) [Example 39, 2-(((4-(2-(2-ethyl-1,3-dioxolan-2-yl)ethoxy)-3-methylpyridin-2-yl)methyl)sulfinyl)-1H-benzimidazole sodium salt] |  | 86 |  | 100 | 
Cc1c(OCC2OCCCO2)ccnc1C[S+]([O-])c1nc2ccccc2[nH]1 (centres unmarked) [Example 32, 2-(((4-(1,3-dioxan-2-ylmethoxy)-3-methylpyridin-2-yl)methyl)sulfinyl)-1H-benzimidazole sodium salt] |  | 83 |  | 100 | 
CCC1(CCOc2ccnc(C[S+]([O-])c3nc4ccccc4[nH]3)c2C)OCC2(CO1)OCCO2 (centres unmarked) [Example 4, 2-(((4-(2-(8-ethyl-1,4,7,9-tetraoxaspiro[4.5]dec-8-yl)ethoxy)-3-methylpyridin-2-yl)methyl)sulfinyl)-1H-benzimidazole sodium salt] | 93 |  | 100 |  | 
[O-][S+](Cc1cc(OCC2COC3(CCOCC3)OC2)ccn1)c1nc2ccccc2[nH]1 (centres unmarked) [Example 60, 2-(((4-(1,5,9-trioxaspiro[5.5]undec-3-ylmethoxy)pyridin-2-yl)methyl)sulfinyl)-1H-benzimidazole sodium salt] | 74 |  | 89 |  | 
Cc1c(OCC2OCC3(CCC3)CO2)ccnc1C[S+]([O-])c1nc2ccccc2[nH]1 (centres unmarked) [Example 85, 2-(((4-(6,8-dioxaspiro[3.5]non-7-ylmethoxy)-3-methylpyridin-2-yl)methyl)sulfinyl)-1H-benzimidazole sodium salt] | 86 |  | 100 |  | 
CCC1(COc2ccnc(C[S+]([O-])c3nc4ccccc4[nH]3)c2C)OCCO1 (centres unmarked) [Example 40, 2-(((4-((2-ethyl-1,3-dioxolan-2-yl)methoxy)-3-methylpyridin-2-yl)methyl)sulfinyl)-1H-benzimidazole sodium salt] | 66 | 92 | 99 | 100 | 
CCC12OCC(COc3ccnc(C[S+]([O-])c4nc5ccccc5[n-]4)c3C)(CO1)CO2.[Na+] (centres unmarked) [Example 29, 2-(((4-((1-ethyl-2,6,7-trioxabicyclo[2.2.2]oct-4-yl)methoxy)-3-methylpyridin-2-yl)methyl)sulfinyl)-1H-benzimidazole sodium salt] |  |  |  |  | Inhibitory effect against gastric acid secretion (%) (dog, in vivo, 1.6 mg/kg): 100%; Persistency of inhibitory effect against gastric acid secretion (%) (dog, in vivo, 1.6 mg/kg): 87%
[O-][S+](Cc1cc(OCC2OCC3(CC3)CO2)ccn1)c1nc2ccccc2[nH]1 (centres unmarked) [Example 50, 2-(((4-(5,7-dioxaspiro[2.5]oct-6-ylmethoxy)pyridin-2-yl)methyl)sulfinyl)-1H-benzimidazole sodium salt] | 80 |  | 79 |  | 
Cc1c(OC2CCC3(CC2)OCC(C)(C)CO3)ccnc1C[S+]([O-])c1nc2ccccc2[nH]1 (centres unmarked) [Example 81, 2-(((4-((3,3-dimethyl-1,5-dioxaspiro[5.5]undec-9-yl)oxy)-3-methylpyridin-2-yl)methyl)sulfinyl)-1H-benzimidazole sodium salt] | 70 |  | 96 |  | 
[O-][S+](Cc1cc(OCC2COC3(CCC3)OC2)ccn1)c1nc2ccccc2[nH]1 (centres unmarked) [Example 57, 2-(((4-(5,9-dioxaspiro[3.5]non-7-ylmethoxy)pyridin-2-yl)methyl)sulfinyl)-1H-benzimidazole sodium salt] | 83 |  | 98 |  | 
Cc1c(OCC2(C)OCCO2)ccnc1C[S+]([O-])c1nc2ccccc2[nH]1 (centres unmarked) [Example 67, 2-(((3-methyl-4-((2-methyl-1,3-dioxolan-2-yl)methoxy)pyridin-2-yl)methyl)sulfinyl)-1H-benzimidazole sodium salt] |  | 83 |  | 100 | 
[O-][S+](Cc1cc(OC2COC3(CCC3)OC2)ccn1)c1nc2ccccc2[nH]1 (centres unmarked) [Example 83, 2-(((4-(5,9-dioxaspiro[3.5]non-7-yloxy)pyridin-2-yl)methyl)sulfinyl)-1H-benzimidazole sodium salt] | 94 |  | 71 |  | 
CCCC1(CCOc2ccnc(C[S+]([O-])c3nc4ccccc4[nH]3)c2C)OCCCO1 (centres unmarked) [Example 8, 2-(((3-methyl-4-(2-(2-propyl-1,3-dioxan-2-yl)ethoxy)pyridin-2-yl)methyl)sulfinyl)-1H-benzimidazole sodium salt] | 88 |  | 100 |  | 
